“And” between values parts separate entries of the source, which are not always exact repeats. Equal entries are not always repeated. Where two headings read alike, the source gives them in different places.

Results on seven molecules are retold here after US20260053773A1, “PHARMACEUTICAL COMPOSITION AND USE THEREOF” (AUHUI TONGOO PHARMACEUTICAL TECHNOLOGY CO., LTD., priority 2022, published 2026).

The nature of experiment [1]: Inhibition of COM crystal growth in three growth directions, inhibitors alone and in combination pairs. The following applies: for concentration of the single inhibitor achieving 10% inhibition of crystal growth / concentration of the single inhibitor achieving 30% inhibition of crystal growth / IC50 / concentration of the single inhibitor achieving 70% inhibition of crystal growth: inhibitor alone; for IC50: read-out: concentration of the single inhibitor achieving 50% inhibition of crystal growth. The protocol: Different concentrations of citric acid (CA) and ellagic acid (EA) were added to 25 ml of deionized water, the supersaturation of the solution was controlled at S=2.4, and the growth process of the crystal was monitored.
The hollow symbols in the figure represent the concentration required for a single inhibitor to achieve a certain effect, and the same solid symbols represent the concentration required for a combination of the inhibitors to achieve the same effect.
Different concentrations of citric acid (CA) and gallic acid (GaA) were added to 25 ml of deionized water, and the growth process of the crystal was monitored.
Different concentrations of citric acid (CA) and pyrogallol (PGA) were added to 25 ml of deionized water, and the growth process of the crystal was monitored.
Different concentrations of citric acid (CA) and protocatechuic acid (PrA) were added to 25 ml of deionized water, and the growth process of the crystal was monitored.
Comparative Example 1 differed from Example 1 merely in that ellagic acid was replaced with albumin, and the other preparation methods were the same as those in Example 1.
Comparative Example 2 differed from Example 1 merely in that ellagic acid was replaced with o-hydroxybenzoic acid, and the other preparation methods were the same as those in Example 1.
Different concentrations of hydroxycitric acid (HCA) and ellagic acid (EA) were added to 25 ml of deionized water, supersaturation of the solution was controlled at S=2.4, and the growth process of the crystal was monitored.
Different concentrations of hydroxycitric acid (HCA) and gallic acid (GaA) were added to 25 ml of deionized water, and the growth process of the crystal was monitored.
Different concentrations of potassium citrate (KCA) and ellagic acid (EA) were added to 25 ml of deionized water, the supersaturation of the solution was controlled at S=2.4, and the growth process of the crystal was monitored.
Different concentrations of potassium citrate (KCA) and gallic acid (GaA) were added to 25 ml of deionized water, and the growth process of the crystal was monitored.

Experiment [2] has as its system human proximal tubule cells (HK-2). Kind of experiment: Cell death/survival of HK-2 cells exposed to COM crystals. In kind it is cell-based. The following applies: for synergistic enhancement order in improving cell activity: polyphenol (20 μM GaA, 20 μM EA, 40 μM PGA, 200 μM PrA) combined with citric acid 200 μM. The protocol: Studies have shown that reducing calcium oxalate crystallization, crystal-cell interactions, and cellular damage can prevent stone formation to some extent. On this basis, the present example further verified the combined effect of the pharmaceutical composition of citric acid (200 μM) and polyphenol molecules (20 μM GaA, 20 μM EA, 40 μM PGA, 200 µM PrA) in reducing cellular damage and crystal adhesion.
In order to explore the combined effects of the pharmaceutical composition on reducing crystal toxicity to cells, an in vitro model of direct exposure to COM crystals was selected in the present example to detect short-term cellular damage. In a culture medium environment with or without inhibitors, mature human proximal tubule cells (HK-2) were exposed to COM crystal suspension medium for the indicated times. […] However, in the presence of CA, the amount of cell death was reduced by 50% (FIG. 6).

Experiment [3] shares this test system. Kind of experiment: Lactate dehydrogenase (LDH) release from HK-2 cells exposed to COM crystals. The format is cell-based. The following applies: 200 μM CA, 20 μM GaA. An excerpt: (§1) Studies have shown that reducing calcium oxalate crystallization, crystal-cell interactions, and cellular damage can prevent stone formation to some extent.
Lactate dehydrogenase (LDH) is a cytoplasmic enzyme released into the extracellular space when the cell membrane ruptures, so the amount of LDH released can be used as a sign of cell membrane integrity.

For the next experiment, the system named is HK-2 cells. Kind of experiment: Adhesion of COM crystals to HK-2 cells in vitro. The following applies: Homo sapiens, 200 μM CA alone, compared with the blank group without inhibitor, read-out: inhibitory effect on COM crystal adhesion. The format is cell-based.
Excerpt: as §1

For experiment [4] the following is noted: related studies; cited from earlier work.

Consider `O=C(O)c1ccc(O)c(O)c1` [PrA, protocatechuic acid], for which, in experiment [1] ([001] direction), the “concentration of the single inhibitor achieving 10% inhibition of crystal growth” value was determined as 0.0255 mM, the “concentration of the single inhibitor achieving 30% inhibition of crystal growth” value stood at 0.0982 mM and the IC50 was determined as 264 µM. Also, in experiment [1] ([021] direction), the “concentration of the single inhibitor achieving 10% inhibition of crystal growth” value was found to be 0.0187 mM, the “concentration of the single inhibitor achieving 30% inhibition of crystal growth” value worked out at 0.0702 mM and the IC50 amounted to 186 µM. Besides, in experiment [1] ([121] direction), the “concentration of the single inhibitor achieving 10% inhibition of crystal growth” value worked out at 0.0307 mM, the “concentration of the single inhibitor achieving 30% inhibition of crystal growth” value was 0.1174 mM and the IC50 amounted to 316 µM. Also, in experiment [2], the “synergistic enhancement order in improving cell activity” value (“synergistic enhancement order” below) is given as “GaA>PcA>PGA>EA”.

Turning to `O=C(O)CC(O)(CC(=O)O)C(=O)O` [CA, citric acid], in experiment [1] ([001] direction), the “concentration of the single inhibitor achieving 10% inhibition of crystal growth” value was found to be 0.0108 mM, the “concentration of the single inhibitor achieving 30% inhibition of crystal growth” value was determined as 0.0369 mM, the “concentration of the single inhibitor achieving 70% inhibition of crystal growth” value was 0.1254 mM and the IC50 worked out at 71 µM. In addition, in experiment [1] ([021] direction), the “concentration of the single inhibitor achieving 10% inhibition of crystal growth” value stood at 0.0121 mM, the “concentration of the single inhibitor achieving 30% inhibition of crystal growth” value was 0.0409 mM, the “concentration of the single inhibitor achieving 70% inhibition of crystal growth” value is 0.1380 mM and the IC50 turned out to be 79.5 µM. In addition, in experiment [1] ([121] direction), the “concentration of the single inhibitor achieving 10% inhibition of crystal growth” value is reported as 0.0135 mM, the “concentration of the single inhibitor achieving 30% inhibition of crystal growth” value is 0.0458 mM, the “concentration of the single inhibitor achieving 70% inhibition of crystal growth” value is 0.1550 mM and the IC50 turned out to be 89 µM. Moreover, the “reduction of the amount of cell death” value in experiment [2] (HK-2 cells exposed to COM crystals 24 hours, CA 200 μM) is listed as 50%. Besides, in experiment [3], the “LDH release compared with the control group” value came out at 195.17%. In addition, in the experiment on HK-2 cells, the inhibition at 200 µM was found to be 30%. The “inhibitory effect on calcium oxalate crystallization” value in experiment [4] is given as 60%.

As for `O=c1oc2c(O)c(O)cc3c(=O)oc4c(O)c(O)cc1c4c23` [EA, ellagic acid], in experiment [1] ([001] direction), the “concentration of the single inhibitor achieving 10% inhibition of crystal growth” value was 8.4e-06 mM and 1.04e-05 mM and 1.05e-05 mM; the “concentration of the single inhibitor achieving 30% inhibition of crystal growth” value is 3.86e-05 mM and 3.09e-05 mM and 3.85e-05 mM; the “concentration of the single inhibitor achieving 70% inhibition of crystal growth” value was 0.0001322 mM and 0.0001041 mM and 0.0001312 mM; the IC50 is 0.0761 µM and 0.0609 µM and 0.0763 µM. Further, in experiment [1] ([021] direction), the “concentration of the single inhibitor achieving 10% inhibition of crystal growth” value was 1.17e-05 mM and 9.4e-06 mM and 1.16e-05 mM; the “concentration of the single inhibitor achieving 30% inhibition of crystal growth” value is 3.98e-05 mM and 3.2e-05 mM and 3.99e-05 mM; the “concentration of the single inhibitor achieving 70% inhibition of crystal growth” value was 0.0001369 mM and 0.0001095 mM and 0.0001358 mM; the IC50 is 0.0772 µM and 0.056 µM and 0.0771 µM. Also, in experiment [1] ([121] direction), the “concentration of the single inhibitor achieving 10% inhibition of crystal growth” value is 1.64e-05 mM and 1.31e-05 mM and 1.65e-05 mM; the “concentration of the single inhibitor achieving 30% inhibition of crystal growth” value is 5.62e-05 mM and 4.49e-05 mM and 5.61e-05 mM; the “concentration of the single inhibitor achieving 70% inhibition of crystal growth” value is 0.0001884 mM and 0.00015 mM and 0.0001879 mM; the IC50 was 0.11 µM and 0.0888 µM. In addition, in experiment [2], the “synergistic enhancement order” value is “GaA>PcA>PGA>EA”.

Regarding `Oc1cccc(O)c1O` [PGA, pyrogallol], in experiment [1] ([001] direction), the “concentration of the single inhibitor achieving 10% inhibition of crystal growth” value turned out to be 0.0021 mM, the “concentration of the single inhibitor achieving 30% inhibition of crystal growth” value worked out at 0.0073 mM, the “concentration of the single inhibitor achieving 70% inhibition of crystal growth” value is 0.0245 mM and the IC50 is 14.2 µM. In experiment [1] ([021] direction), the “concentration of the single inhibitor achieving 10% inhibition of crystal growth” value turned out to be 0.0018 mM, the “concentration of the single inhibitor achieving 30% inhibition of crystal growth” value is listed as 0.0062 mM, the “concentration of the single inhibitor achieving 70% inhibition of crystal growth” value is recorded as 0.0210 mM and the IC50 came out at 12.1 µM. Also, in experiment [1] ([121] direction), the “concentration of the single inhibitor achieving 10% inhibition of crystal growth” value was determined as 0.0027 mM, the “concentration of the single inhibitor achieving 30% inhibition of crystal growth” value was determined as 0.0091 mM, the “concentration of the single inhibitor achieving 70% inhibition of crystal growth” value is given as 0.0309 mM and the IC50 came out at 17.7 µM. The “synergistic enhancement order” value in experiment [2] was “GaA>PcA>PGA>EA”.

For `O=C([O-])CC(O)(CC(=O)[O-])C(=O)[O-].[K+].[K+].[K+]` [KCA, potassium citrate], in experiment [1] ([001] direction), the “concentration of the single inhibitor achieving 10% inhibition of crystal growth” value was 0.0106 mM, the “concentration of the single inhibitor achieving 30% inhibition of crystal growth” value is given as 0.0369 mM, the “concentration of the single inhibitor achieving 70% inhibition of crystal growth” value came out at 0.1253 mM and the IC50 is 70.9 µM. Besides, in experiment [1] ([021] direction), the “concentration of the single inhibitor achieving 10% inhibition of crystal growth” value was 0.0123 mM, the “concentration of the single inhibitor achieving 30% inhibition of crystal growth” value turned out to be 0.0401 mM, the “concentration of the single inhibitor achieving 70% inhibition of crystal growth” value came out at 0.1369 mM and the IC50 was 79.4 µM. Further, in experiment [1] ([121] direction), the “concentration of the single inhibitor achieving 10% inhibition of crystal growth” value worked out at 0.0135 mM, the “concentration of the single inhibitor achieving 30% inhibition of crystal growth” value is listed as 0.0451 mM, the “concentration of the single inhibitor achieving 70% inhibition of crystal growth” value was 0.1547 mM and the IC50 was 88.1 µM. The “effect compared with citric acid” value in experiment [1] (inhibition of COM crystal growth) is given as “almost the same”.

Consider `O=C(O)CC(O)(C(=O)O)C(O)C(=O)O` (stereo not drawn) [HCA, hydroxycitric acid], for which, in experiment [1] ([001] direction), the “concentration of the single inhibitor achieving 10% inhibition of crystal growth” value turned out to be 0.0088 mM, the “concentration of the single inhibitor achieving 30% inhibition of crystal growth” value turned out to be 0.0281 mM, the “concentration of the single inhibitor achieving 70% inhibition of crystal growth” value is on record as 0.1003 mM and the IC50 stood at 56.1 µM. For the same molecule, in experiment [1] ([021] direction), the “concentration of the single inhibitor achieving 10% inhibition of crystal growth” value is on record as 0.0096 mM, the “concentration of the single inhibitor achieving 30% inhibition of crystal growth” value stood at 0.0320 mM, the “concentration of the single inhibitor achieving 70% inhibition of crystal growth” value is listed as 0.1104 mM and the IC50 came out at 61 µM. In experiment [1] ([121] direction), the “concentration of the single inhibitor achieving 10% inhibition of crystal growth” value is 0.0110 mM, the “concentration of the single inhibitor achieving 30% inhibition of crystal growth” value turned out to be 0.0367 mM, the “concentration of the single inhibitor achieving 70% inhibition of crystal growth” value is 0.1240 mM and the IC50 was 72 µM.

For the molecule `O=C(O)c1cc(O)c(O)c(O)c1` [GaA, gallic acid], in experiment [1] ([001] direction), the “concentration of the single inhibitor achieving 10% inhibition of crystal growth” value was 0.0003716 mM and 0.0004677 mM and 0.0004678 mM; the “concentration of the single inhibitor achieving 30% inhibition of crystal growth” value is 0.0015906 mM and 0.0012801 mM and 0.00159 mM; the “concentration of the single inhibitor achieving 70% inhibition of crystal growth” value is 0.0053799 mM and 0.0043049 mM and 0.0053797 mM; the IC50 was 3.1 µM and 2.4 µM. In experiment [1] ([021] direction), the “concentration of the single inhibitor achieving 10% inhibition of crystal growth” value is 0.0003743 mM and 0.0002994 mM and 0.0003744 mM; the “concentration of the single inhibitor achieving 30% inhibition of crystal growth” value is 0.0012912 mM and 0.0010221 mM and 0.001291 mM; the “concentration of the single inhibitor achieving 70% inhibition of crystal growth” value is 0.0043601 mM and 0.003488 mM and 0.00436 mM; the IC50 is 2.51 µM and 1.8 µM. In experiment [1] ([121] direction), the “concentration of the single inhibitor achieving 10% inhibition of crystal growth” value is 0.0004959 mM and 0.0003967 mM; the “concentration of the single inhibitor achieving 30% inhibition of crystal growth” value was 0.0016841 mM and 0.0013473 mM and 0.0016842 mM; the “concentration of the single inhibitor achieving 70% inhibition of crystal growth” value was 0.0056887 mM and 0.004551 mM and 0.0056881 mM; the IC50 was 3.27 µM and 2.62 µM. Besides, the “synergistic enhancement order” value in experiment [2] is “GaA>PcA>PGA>EA”.
